Reference: patent publication US8962574B2 (Boehringer Ingelheim International GmbH, priority 2008, dated 2015)
Values joined by “and” are separate entries in the source; they are usually repeats but may differ in a detail not shown here. Equal entries are not always repeated. Where two headings read alike, the source gives them in different places.

Tests used:
[1] = system: patients with atrial fibrillation
Method: PETRO-Ex began while the PETRO study was ongoing and investigators were initially kept blinded to patient treatment group until PETRO was completed. Unblinding investigators to patient treatment was possible thereafter.
Data were summarized descriptively; no hypothesis was to be tested. Events were analyzed on the basis of the treatment at onset. Incidences were reported as number of patients with events as well as normalized to 100 patient-years on the respective treatment.
Written, informed consent was obtained from all patients.
Patients who completed PETRO on 50 mg b.i.d. were switched to 150 mg q.d. upon entry in the PETRO-Ex study (N=93 patients). […] Patients who were down titrated to 50 mg q.d. based on a glomerular filtration rate ≦50 mL/min during PETRO were excluded from the long-term trial; patients down-titrated in other dose levels remained on the q.d. treatment at that dose.
The total exposure reflects both trials, PETRO and PETRO-Ex, together.

[2] = Clinical pharmacokinetics and pharmacodynamics of dabigatran etexilate; type: in vivo; settings: after dosing
Excerpt: Ezekowitz M D, et al., Dabigatran with or without concomitant aspirin compared with warfarin alone in patients with nonvalvular atrial fibrillation (PETRO study), Am. […] The PETRO study is described below.
As noted above, management of warfarin therapy is complex, and failure to adequately monitor patients is associated with risk. […] It also interacts with many common foods, drugs and alcohol which alter its therapeutic effect, putting patients at risk of either a bleeding or thrombotic event. Therefore, warfarin therapy requires careful individualized dosing and frequent monitoring. The significant limitations of VKAs have created a need for an oral anticoagulant with a rapid onset of action, minimal drug interactions, and a predictable anticoagulation effect that needs no monitoring.
Peak levels are seen within 2-3 hours of oral administration. […] Steady-state is reached within 2-3 days with a twice daily regimen. […] The remainder undergoes conjugation with glucuronic acid to form acylglucuronides which are excreted primarily in the bile.

[3] = system: patients with chronic atrial fibrillation; test: PETRO phase 2 12-week dose finding study; type: in vivo, human; settings: 12 weeks
Excerpt: Primary endpoints were bleeding events and changes in D-dimer. […] Minor bleeding was dose related.

[4] = individual patients with LFT abnormalities, one table line per patient (age c0, sex c1), ^# = with concomitant Bilirubin elevation to >2xULN

Structure (SMILES): CCCCCCOC(=O)NC(=N)c1ccc(NCc2nc3cc(C(=O)N(CCC(=O)OCC)c4ccccn4)ccc3n2C)cc1 [dabigatran etexilate, 1-methyl-2-[N-[4-(N-n-hexyloxycarbonylamidino)phenyl]aminomethyl]benzimidazol-5-ylcarboxylic acid-N-(2-pyridyl)-N-(2-ethoxycarbonylethyl)amides]
- ALT or AST >2xULN, subjects with event ([1]; 50 mg b.i.d.): 0
- ALT or AST >3xULN and Bili >2xULN within 30 days, subjects with event ([1]; 50 mg b.i.d.): 0
- ALT or AST >3xULN, subjects with event ([1]; 50 mg b.i.d.): 0
- ALT or AST >5xULN, subjects with event ([1]; 50 mg b.i.d.): 0
- Adverse Events leading to premature discontinuation, rate ([1]; 50 mg b.i.d.): 21.3 % per year
- Adverse Events leading to premature discontinuation, subjects with event ([1]; 50 mg b.i.d.): 5
- MI, subjects with event ([1]; 50 mg b.i.d.): 0
- Major Bleeds with aspirin, subjects with event ([1]; 50 mg b.i.d.): 0
- Major Bleeds without aspirin, subjects with event ([1]; 50 mg b.i.d.): 0
- Major Bleeds, subjects with event ([1]; 50 mg b.i.d.): 0
- Other MACE, subjects with event ([1]; 50 mg b.i.d.): 2
- Stroke and Systemic Thromboembolism, subjects with event ([1]; 50 mg b.i.d.): 3
- TIA, subjects with event ([1]; 50 mg b.i.d.): 0
- ALT or AST >2xULN, subjects with event ([1]; 50 mg q.d.): 0
- ALT or AST >3xULN and Bili >2xULN within 30 days, subjects with event ([1]; 50 mg q.d.): 0
- ALT or AST >3xULN, subjects with event ([1]; 50 mg q.d.): 0
- ALT or AST >5xULN, subjects with event ([1]; 50 mg q.d.): 0
- Adverse Events leading to premature discontinuation, subjects with event ([1]; 50 mg q.d.): 0
- MI, subjects with event ([1]; 50 mg q.d.): 0
- Major Bleeds with aspirin, subjects with event ([1]; 50 mg q.d.): 0
- Major Bleeds without aspirin, subjects with event ([1]; 50 mg q.d.): 0
- Major Bleeds, subjects with event ([1]; 50 mg q.d.): 0
- Other MACE, subjects with event ([1]; 50 mg q.d.): 0
- Stroke and Systemic Thromboembolism, subjects with event ([1]; 50 mg q.d.): 0
- TIA, subjects with event ([1]; 50 mg q.d.): 0
- ALT or AST >2xULN, rate ([1]; 150 mg b.i.d.): 3.1 % per year
- ALT or AST >2xULN, subjects with event ([1]; 150 mg b.i.d.): 21
- ALT or AST >3xULN and Bili >2xULN within 30 days, rate ([1]; 150 mg b.i.d.): 0.4 % per year
- ALT or AST >3xULN and Bili >2xULN within 30 days, subjects with event ([1]; 150 mg b.i.d.): 3
- ALT or AST >3xULN, rate ([1]; 150 mg b.i.d.): 1.9 % per year
- ALT or AST >3xULN, subjects with event ([1]; 150 mg b.i.d.): 13
- ALT or AST >5xULN, rate ([1]; 150 mg b.i.d.): 1.0 % per year
- ALT or AST >5xULN, subjects with event ([1]; 150 mg b.i.d.): 7
- Adverse Events leading to premature discontinuation, rate ([1]; 150 mg b.i.d.): 9.8 % per year
- Adverse Events leading to premature discontinuation, subjects with event ([1]; 150 mg b.i.d.): 67
- MI, subjects with event ([1]; 150 mg b.i.d.): 6
- Major Bleeds with aspirin, rate ([1]; 150 mg b.i.d.): 8.7 % per year
- Major Bleeds with aspirin, subjects with event ([1]; 150 mg b.i.d.): 11
- Major Bleeds without aspirin, rate ([1]; 150 mg b.i.d.): 3.2 % per year
- Major Bleeds without aspirin, subjects with event ([1]; 150 mg b.i.d.): 18
- Major Bleeds, rate ([1]; 150 mg b.i.d.): 4.2 % per year
- Major Bleeds, subjects with event ([1]; 150 mg b.i.d.): 29
- Other MACE, subjects with event ([1]; 150 mg b.i.d.): 7
- Stroke and Systemic Thromboembolism, subjects with event ([1]; 150 mg b.i.d.): 7
- TIA, subjects with event ([1]; 150 mg b.i.d.): 1
- ALT or AST >2xULN, rate ([1]; 150 mg q.d.): 3.4 % per year
- ALT or AST >2xULN, subjects with event ([1]; 150 mg q.d.): 2
- ALT or AST >3xULN and Bili >2xULN within 30 days, subjects with event ([1]; 150 mg q.d.): 0
- ALT or AST >3xULN, subjects with event ([1]; 150 mg q.d.): 0
- ALT or AST >5xULN, subjects with event ([1]; 150 mg q.d.): 0
- Adverse Events leading to premature discontinuation, rate ([1]; 150 mg q.d.): 13.7 % per year
- Adverse Events leading to premature discontinuation, subjects with event ([1]; 150 mg q.d.): 8
- MI, subjects with event ([1]; 150 mg q.d.): 0
- Major Bleeds with aspirin, subjects with event ([1]; 150 mg q.d.): 0
- Major Bleeds without aspirin, rate ([1]; 150 mg q.d.): 6.5 % per year
- Major Bleeds without aspirin, subjects with event ([1]; 150 mg q.d.): 3
- Major Bleeds, rate ([1]; 150 mg q.d.): 5.1 % per year
- Major Bleeds, subjects with event ([1]; 150 mg q.d.): 3
- Other MACE, subjects with event ([1]; 150 mg q.d.): 0
- Stroke and Systemic Thromboembolism, subjects with event ([1]; 150 mg q.d.): 3
- TIA, subjects with event ([1]; 150 mg q.d.): 0
- ALT or AST >2xULN, rate ([1]; 300 mg b.i.d.): 4.9 % per year
- ALT or AST >2xULN, subjects with event ([1]; 300 mg b.i.d.): 4
- ALT or AST >3xULN and Bili >2xULN within 30 days, subjects with event ([1]; 300 mg b.i.d.): 0
- ALT or AST >3xULN, rate ([1]; 300 mg b.i.d.): 2.4 % per year
- ALT or AST >3xULN, subjects with event ([1]; 300 mg b.i.d.): 2
- ALT or AST >5xULN, rate ([1]; 300 mg b.i.d.): 1.2 % per year
- ALT or AST >5xULN, subjects with event ([1]; 300 mg b.i.d.): 1
- Adverse Events leading to premature discontinuation, rate ([1]; 300 mg b.i.d.): 25.6 % per year
- Adverse Events leading to premature discontinuation, subjects with event ([1]; 300 mg b.i.d.): 21
- MI, subjects with event ([1]; 300 mg b.i.d.): 0
- Major Bleeds with aspirin, rate ([1]; 300 mg b.i.d.): 32.7 % per year
- Major Bleeds with aspirin, subjects with event ([1]; 300 mg b.i.d.): 6
- Major Bleeds without aspirin, rate ([1]; 300 mg b.i.d.): 6.3 % per year
- Major Bleeds without aspirin, subjects with event ([1]; 300 mg b.i.d.): 4
- Major Bleeds, rate ([1]; 300 mg b.i.d.): 12.2 % per year
- Major Bleeds, subjects with event ([1]; 300 mg b.i.d.): 10
- Other MACE, subjects with event ([1]; 300 mg b.i.d.): 1
- Stroke and Systemic Thromboembolism, subjects with event ([1]; 300 mg b.i.d.): 1
- TIA, subjects with event ([1]; 300 mg b.i.d.): 0
- ALT or AST >2xULN, rate ([1]; 300 mg q.d.): 1.5 % per year
- ALT or AST >2xULN, subjects with event ([1]; 300 mg q.d.): 3
- ALT or AST >3xULN and Bili >2xULN within 30 days, rate ([1]; 300 mg q.d.): 0.5 % per year
- ALT or AST >3xULN and Bili >2xULN within 30 days, subjects with event ([1]; 300 mg q.d.): 1
- ALT or AST >3xULN, rate ([1]; 300 mg q.d.): 1.5 % per year
- ALT or AST >3xULN, subjects with event ([1]; 300 mg q.d.): 3
- ALT or AST >5xULN, rate ([1]; 300 mg q.d.): 1.5 % per year
- ALT or AST >5xULN, subjects with event ([1]; 300 mg q.d.): 3
- Adverse Events leading to premature discontinuation, rate ([1]; 300 mg q.d.): 9.6 % per year
- Adverse Events leading to premature discontinuation, subjects with event ([1]; 300 mg q.d.): 19
- MI, subjects with event ([1]; 300 mg q.d.): 1
- Major Bleeds with aspirin, rate ([1]; 300 mg q.d.): 3.6 % per year
- Major Bleeds with aspirin, subjects with event ([1]; 300 mg q.d.): 2
- Major Bleeds without aspirin, rate ([1]; 300 mg q.d.): 2.1 % per year
- Major Bleeds without aspirin, subjects with event ([1]; 300 mg q.d.): 3
- Major Bleeds, rate ([1]; 300 mg q.d.): 2.5 % per year
- Major Bleeds, subjects with event ([1]; 300 mg q.d.): 5
- Other MACE, subjects with event ([1]; 300 mg q.d.): 1
- Stroke and Systemic Thromboembolism, subjects with event ([1]; 300 mg q.d.): 5
- TIA, subjects with event ([1]; 300 mg q.d.): 0
- Serious adverse events: cardiac disorders, number of patients ([1]; PETRO-Ex): 80
- Serious adverse events: gastrointestinal disorders, number of patients ([1]; PETRO-Ex): 28
- Serious adverse events: infections, number of patients ([1]; PETRO-Ex): 34
- Serious adverse events: nervous system disorders, number of patients ([1]; PETRO-Ex): 33
- Serious adverse events, number of patients ([1]; PETRO-Ex, including bleeding and thrombotic events): 184
- ALT or AST >2xULN, rate ([1]; Total (all doses)): 2.9 % per year
- ALT or AST >2xULN, subjects with event ([1]; Total (all doses)): 30
- ALT or AST >3xULN and Bili >2xULN within 30 days, rate ([1]; Total (all doses)): 0.4 % per year
- ALT or AST >3xULN and Bili >2xULN within 30 days, subjects with event ([1]; Total (all doses)): four
- ALT or AST >3xULN, rate ([1]; Total (all doses)): 1.7 % per year
- ALT or AST >3xULN, subjects with event ([1]; Total (all doses)): 18
- ALT or AST >5xULN, rate ([1]; Total (all doses)): 1.1 % per year
- ALT or AST >5xULN, subjects with event ([1]; Total (all doses)): 11
- Adverse Events leading to premature discontinuation, rate ([1]; Total (all doses)): 11.5 % per year
- Adverse Events leading to premature discontinuation, subjects with event ([1]; Total (all doses)): 120
- MI, subjects with event ([1]; Total (all doses)): 7
- Major Bleeds with aspirin, rate ([1]; Total (all doses)): 8.5 % per year
- Major Bleeds with aspirin, subjects with event ([1]; Total (all doses)): 19
- Major Bleeds without aspirin, rate ([1]; Total (all doses)): 3.2 % per year
- Major Bleeds without aspirin, subjects with event ([1]; Total (all doses)): 26
- Major Bleeds, rate ([1]; Total (all doses)): 4.2 % per year
- Major Bleeds, subjects with event ([1]; Total (all doses)): 44
- Other MACE, subjects with event ([1]; Total (all doses)): 11
- Stroke and Systemic Thromboembolism, subjects with event ([1]; Total (all doses)): 20
- TIA, subjects with event ([1]; Total (all doses)): 1
- ALT or AST >3xULN and Bili >2xULN within 30 days, subjects with event ([1]; Total (all doses), listed as Dabigatran etexilate): 4
- Risk ratio of bleeding event rate on concomitant aspirin vs. without ([1]; in vivo): 2.70
- Final Outcome/Comment of LFT abnormality ([1]; individual patients with LFT abnormalities, one table line per patient (age c0, sex c1)): Recovered
- LFT abnormality ALT/ULN [1, 4]: >5x xULN (4×) and >5x^# xULN (2×) and >3x xULN (5×) and >3x^# xULN
- LFT abnormality AST/ULN [1, 4]: >5x^# xULN (4×) and >5x xULN (4×) and >3x xULN (5×)
- Final Outcome/Comment of LFT abnormality ([1]; individual patients with LFT abnormalities, one table line per patient (age c0, sex c1), listed as Dabigatran etexilate): Fatal
- Onset of anticoagulant effect [2]: within one hour
- Major bleeding events ([3]; 300 mg b.i.d. plus ASA groups): 6%
- Major bleeding events, number ([3]; 300 mg b.i.d. plus ASA groups): Four
- Minor bleeding ([3]; 50, 150, 300 mg b.i.d.): dose related
